Measured values as given in patent US20250270202A1, “SUBSTITUTED 4-AMINOISOINDOLINE COMPOUND, PREPARATION METHOD THEREFOR, PHARMACEUTICAL COMPOSITION THEREOF, AND USE THEREOF” (SHANGHAI INSTITUTE OF MATERIA MEDICA, CHINESE ACADEMY OF …, priority 2022, published 2025).
Where two headings read alike, the source gives them in different places.

Legend:
Type in all cases: cell-based
MM.1S cells = assay: Effect of the compound on MM.1S cell proliferation (MTS, 7 days); conditions: Homo sapiens, MM1.S
Method: MM.1S cells were cultured in 1640 medium supplemented with 10% fetal bovine serum, then collected and diluted to the desired cell concentration after 7 days of treatment. A total of 180 μL of cell suspension was added to each well in a 96-well cell plate, ensuring 20,000 cells per well. For the control group, 20 μL of 0.2% DMSO was added to each well. Compounds were diluted in a 5-step gradient from a 10 mM stock solution, and 20 μL of each dilution was added to the compound-containing wells (with a final DMSO concentration of 0.2%). The cells were incubated in a 37° C., 5% CO2 incubator for 7 days. Afterward, 20 μL of the MTS reagent (Promega, G5430) was added to each well, followed by incubation for 3-4 hours in a 37° C., 5% CO2 incubator. Absorbance at 490 nm was measured using a microplate reader, with 690 nm absorbance as the background. The final raw data was calculated as OD490-OD690. The compound inhibition rate was calculated using the formula: […]
The IC50 for the compound's proliferative inhibition was fitted using GraphPad Prism 5.0. The experiment was repeated three times, and the average and standard deviation were calculated using three parallel experiments per trial.

Mino cells = assay: Inhibition of cell proliferation of Mino cells (MTS, 3 days); conditions: Homo sapiens, MINO
Method: Mino cells were cultured with RPMI-1640 medium supplemented with 15% fetal bovine serum, and collected. The cell concentration was diluted according to a 3-day treatment period, and 90 μL of the cell suspension was added to each well of a 96-well plate, resulting in 8000 cells per well. For control wells, 10 μL of DMSO at a final concentration of 0.2% was added. The compounds were diluted in a 5-fold gradient from a 10 mM stock solution, and 10 μL of each compound solution was added to the experimental wells (with a final DMSO concentration of 0.2%). The cells were incubated in a 37° C., 5% CO2 incubator for 3 days. After preparing the reaction mixture using the MTS reagent kit (Promega, G5430), 20 μL was added to each well, and the cells were incubated for 3-4 hours at 37° C., 5% CO2.
The absorbance at 490 nm was read using a microplate reader, with the absorbance at 690 nm used as the background. The final raw data was calculated as OD490-OD690. The inhibition rate of the compounds was calculated using the formula: Inhibition rate=(OD DMSO−OD compound)/(OD DMSO−OD blank)×100%. The IC50 values for cell proliferation inhibition of the compounds were fitted using GraphPad Prism 5.0. The experiment was repeated three times, with the average and standard deviation calculated from three parallel experiments each time.

MV-4-11 cells = assay: Inhibition of MV-4-11 cell proliferation (MTS, 7 days); conditions: Homo sapiens
Method: MV-4-11 cells were cultured in IMDM with 10% fetal bovine serum, collected, and diluted to the appropriate cell concentration for a 7-day treatment period. A 96-well plate was used, and 180 μL of cell suspension was added to each well, resulting in a cell count of 2,000 per well. For the control wells, 20 μL of DMSO at a final concentration of 0.2% was added. The compounds were diluted from a 10 mM stock solution in a five-fold gradient, and 20 μL was added to the compound wells (with a final DMSO concentration of 0.2%). The cells were incubated in a 37° C., 5% CO2 incubator for 7 days. After preparing the reaction solution using the MTS reagent kit (Promega, G5430), 20 μL was added to each well, and the cells were incubated in the incubator for 3-4 hours. The absorbance at 490 nm was measured using a microplate reader, with the absorbance at 690 nm as the background value. The final data was calculated as OD490-OD690. The inhibition rate of the compounds was calculated using the formula: […]
The IC50 values for proliferation inhibition were calculated using GraphPad Prism 5.0. The experiments were repeated three times, with three parallel experiments for each, and the mean and standard deviation were calculated.
The cell activity test results are shown in Table 3: A indicates IC50<1 μM, B indicates 1 µM≤IC50≤20 μM, and C indicates IC50>20 μM.

[1] = 168 h, 7 days, MTS, Table 1, read-out: MM.1S Cells Inhibition Activity IC50
[2] = 72 h, 3 days, MTS, Table 2, read-out: Mino Cells Inhibition Activity IC50
[3] = MV4-11, 168 h, 7 days, MTS, Table 3, read-out: MV-4-11 Cells Inhibition Activity IC50
[4] = Table 4, read-out: Inhibitory Activity of Compounds on Cell Proliferation MM.1S IC50
[5] = Table 4, read-out: Inhibitory Activity of Compounds on Cell Proliferation Mino IC50
[6] = MV4-11, Table 4, values in nM, read-out: Inhibitory Activity of Compounds on Cell Proliferation MV-4-11 IC50
[7] = MV4-11, positive compounds, read-out: IC50 in MV-4-11 acute leukemia cells

Row | Compound | IC50 (MM.1S cells; [1]) [nM] | IC50 (Mino cells; [2]) [nM] | IC50 (MV-4-11 cells; [3]) [nM] | IC50 (MM.1S cells; [4]) [nM] | IC50 (Mino cells; [5]) [nM] | IC50 (MV-4-11 cells; [6]) [nM] | IC50 (MV-4-11 cells; [7]) [nM]
1 | O=C1CCC(N2C(=O)c3cccc(NCc4cnc(-c5ccccc5Cl)s4)c3C2=O)C(=O)N1 (stereo not drawn) [Example 69, 4-(((2-(2-Chlorophenyl)thiazol-5-yl)methyl)amino)-2-(2,6-Dioxopiperidin-3-yl)isoindolin-1,3-dione] | 30 to 150 | > 120 | < 1000 | – | – | – | –
2 | O=C1CCC(N2Cc3c(CCc4cnc(-c5ccc(OC(F)(F)F)cc5)o4)cccc3C2=O)C(=O)N1 (stereo not drawn) [Prior Art Disclosed Compound-2, reference compound] | – | – | – | 73 | 800 | > 20000 | –
3 | O=C1CCC(N2C(=O)c3cccc(NCc4cnc(C5CCN(C(=O)C67CC8CC(CC(C8)C6)C7)CC5)o4)c3C2=O)C(=O)N1 (stereo not drawn) [Example 3, 4-((2-(1-((3r,5r,7r)-adamantane-1-carbonyl)piperidin-4-yl)oxazol-5-yl)methyl)amino)-2-(2,6-dioxopiperidin-3-yl)isoindoline-1,3-dione] | < 15 | < 60 | 1000 to 20000 | – | – | – | –
4 | CC1(C(=O)N2CCC(c3ncc(CNc4cccc5c4C(=O)N(C4CCC(=O)NC4=O)C5=O)o3)CC2)CCCCC1 (stereo not drawn) [Example 10] | < 15 | 60 to 120 | 1000 to 20000 | – | – | – | –
5 | COCCOc1ccc(-c2ncc(CNc3cccc4c3C(=O)N(C3CCC(=O)NC3=O)C4=O)o2)cc1 (stereo not drawn) [Example 52] | < 15 | < 60 | < 1000 | – | – | – | –
6 | C[C@@H]1CN(Cc2ncc(CNc3cccc4c3C(=O)N(C3CCC(=O)NC3=O)C4=O)o2)C[C@H](C)O1 (stereo partly drawn) [Example 79, 4-(((2-(((2R,6S)-2,6-Dimethylmorpholino)methyl)oxazol-5-yl)methyl)amino)-2-(2,6-Dioxopiperidin-3-yl)isoindoline-1,3-dione] | > 150 | > 120 | < 1000 | – | – | – | –
7 | O=C1CCC(N2C(=O)c3cccc(NCc4ncc(-c5ccc(Cl)cc5)o4)c3C2=O)C(=O)N1 (stereo not drawn) [Example 64, 4-(((5-(4-Chlorophenyl)oxazol-2-yl)methyl)amino)-2-(2,6-Dioxopiperidin-3-yl)isoindolin-1,3-dione] | < 15 | > 120 | < 1000 | – | – | – | –
8 | N#Cc1cccc(-c2ncc(CNc3cccc4c3C(=O)N(C3CCC(=O)NC3=O)C4=O)s2)c1 (stereo not drawn) [Example 30] | 15 to 30 | > 120 | 1000 to 20000 | – | – | – | –
9 | O=C1CCC(N2C(=O)c3cccc(NCc4cnc(-c5ccccc5C(F)(F)F)o4)c3C2=O)C(=O)N1 (stereo not drawn) [Example 59] | 30 to 150 | > 120 | 1000 to 20000 | – | – | – | –
10 | O=C1CCC(N2C(=O)c3cccc(NCc4cnc(-c5cc(Cl)cc(Cl)c5)o4)c3C2=O)C(=O)N1 (stereo not drawn) [Example 75, 4-(((2-(3,5-Dichlorophenyl)oxazol-5-yl)methyl)amino)-2-(2,6-Dioxopiperidin-3-yl)isoindolin-1,3-dione] | – | > 120 | < 1000 | – | – | – | –
11 | COCCOc1ccc(-c2ncc(CNc3cccc4c3C(=O)N(C3CCC(=O)NC3=O)C4=O)s2)cc1 (stereo not drawn) [Example 104] | 15 to 30 | > 120 | < 1000 | – | – | – | –
12 | O=C1CCC(N2C(=O)c3cccc(NCc4ncc(-c5ccccc5F)o4)c3C2=O)C(=O)N1 (stereo not drawn) [Example 95, 2-(2,6-Dioxopiperidine-3-yl)-4-(((5-(2-Fluorophenyl)oxazol-2-yl)methyl)amino)isoindoline-1,3-dione] | 30 to 150 | > 120 | > 20000 | – | – | – | –
13 | O=C1CCC(N2Cc3c(OCC4CCN(c5ccc(OC(F)(F)F)cc5)CC4)cccc3C2=O)C(=O)N1 (stereo not drawn) [Prior Art Disclosed Compound-4, reference compound] | – | – | – | > 41 | 7500 | > 10000 | –
14 | O=C1CCC(N2C(=O)c3cccc(NCc4ncc(-c5cccc(Cl)c5)o4)c3C2=O)C(=O)N1 (stereo not drawn) [Example 65, 4-(((5-(3-Chlorophenyl)oxazol-2-yl)methyl)amino)-2-(2,6-Dioxopiperidin-3-yl)isoindolin-1,3-dione] | 30 to 150 | > 120 | < 1000 | – | – | – | –
15 | [2H]c1c([2H])c([2H])c(-c2ncc(CNc3cccc4c3C(=O)N(C3CCC(=O)NC3=O)C4=O)s2)c([2H])c1[2H] (stereo not drawn) [Example 46] | 15 to 30 | > 120 | 1000 to 20000 | – | – | – | –
16 | O=C1CCC(N2C(=O)c3cccc(NCc4cnc(-c5cccc(OC(F)(F)F)c5)o4)c3C2=O)C(=O)N1 (stereo not drawn) [Example 55] | 15 to 30 | – | < 1000 | – | – | – | –
17 | O=C1CCC(N2C(=O)c3cccc(NCc4cnc(-c5cccc(Cl)c5)s4)c3C2=O)C(=O)N1 (stereo not drawn) [Example 68, 4-(((2-(3-Chlorophenyl)thiazol-5-yl)methyl)amino)-2-(2,6-Dioxopiperidin-3-yl)isoindolin-1,3-dione] | – | > 120 | < 1000 | – | – | – | –
18 | O=C1CCC(N2C(=O)c3cccc(NCc4ncc(-c5ccccc5C(F)(F)F)o4)c3C2=O)C(=O)N1 (stereo not drawn) [Example 62] | > 150 | > 120 | 1000 to 20000 | – | – | – | –
19 | O=C1CCC(N2Cc3c(OCc4ccc(CN5CCOCC5)cc4)cccc3C2=O)C(=O)N1 (stereo not drawn) [CC-220, reference compound] | < 15 | 60 to 120 | > 20000 | – | – | – | > 20000
20 | O=C1CCC(N2C(=O)c3cccc(NCc4cnc(C5CCN(C(=O)c6ccc(Cl)cc6Cl)CC5)o4)c3C2=O)C(=O)N1 (stereo not drawn) [Example 8] | 15 to 30 | 60 to 120 | < 1000 | – | – | – | –
21 | CC(C)(C)C(=O)OCN1C(=O)CCC(N2C(=O)c3cccc(NCc4cnc(-c5ccc(Cl)cc5)o4)c3C2=O)C1=O (stereo not drawn) [Example 40, (3-(4-(((2-(4-Chlorophenyl)-5-oxazolyl)methyl)amino)-1,3-dioxoisoindol-2-yl)-2,6-dioxopiperidin-1-yl)methyl Neopentyl Ester] | 30 to 150 | > 120 | < 1000 | – | – | – | –
22 | O=C1CCC(N2Cc3c(NCc4cn(-c5ccc(Cl)cc5)nn4)cccc3C2=O)C(=O)N1 (stereo not drawn) [Example Ctrl-4, reference compound] | – | – | – | > 15 | > 5000 | > 20000 | –
23 | Cc1ccc(-c2ncc(CNc3cccc4c3C(=O)N(C3CCC(=O)NC3=O)C4=O)s2)cc1 (stereo not drawn) [Example 29] | < 15 | > 120 | < 1000 | – | – | – | –
24 | O=C1CCC(N2C(=O)c3cccc(NCc4cnc(-c5cccc(F)c5)o4)c3C2=O)C(=O)N1 (stereo not drawn) [Example 70, 2-(2,6-Dioxopiperidin-3-yl)-4-(((2-(3-Fluorophenyl)oxazol-5-yl)methyl)amino)isoindolin-1,3-dione] | 15 to 30 | – | 1000 to 20000 | – | – | – | –
25 | O=C1CCC(N2C(=O)c3cccc(NCc4cnc(-c5ccc(OC6COC6)cc5)s4)c3C2=O)C(=O)N1 (stereo not drawn) [Example 102] | 30 to 150 | – | 1000 to 20000 | – | – | – | –
26 | O=C1CCC(N2C(=O)c3cccc(NCc4cnc(-c5ccccc5OC5COC5)o4)c3C2=O)C(=O)N1 (stereo not drawn) [Example 101] | – | – | 1000 to 20000 | – | – | – | –
27 | Cc1nc2cccc(N)c2c(=O)n1C1CCC(=O)NC1=O (stereo not drawn) [CC-122, reference compound] | – | – | – | – | – | – | > 20000
28 | O=C1CCC(N2C(=O)c3cccc(NCc4cnc(-c5ccccc5OC(F)(F)F)o4)c3C2=O)C(=O)N1 (stereo not drawn) [Example 56] | 30 to 150 | – | 1000 to 20000 | – | – | – | –
